Non-standard residues stand in square brackets, D forms with d. Residues, ends and D or L forms follow the SMILES beside them. *: point of attachment. Acetyl(2-naphthyl) = O=C(Cc1ccc2ccccc2c1)*
Assays:
[1] = system: OVA-induced immune responses; conditions: ref 16a; cited from earlier work
Source text: Poor tolerance induction was also observed from the Nap‐GFFY group (Figure 2A, red dotted line; 60% T1D onset). […] In the present study, when both isoforms of Nap‐GFFY were used, the lack of stability and adjuvant potency of L‐GFFY resulted both in reduced antigenic and adjuvant impact, rendering the Nap‐GFFY formulation less eff ... || Supramolecular peptide hydrogel has, in the past 5 years, been extensively investigated as immune adjuvant to improve efficacy of antigen presentation. By using peptide hydrogel, which functions both as antigen depot and immune adjuvant, it eliminates the likely protein‐induced hypersensitivity in vivo and the need for additional adjuvant^[ ^15 , ^37 ^] […] Because the peptide sequence GFFY is conserved in multiple self‐antigens of autoimmune diabetes, we now have assessed its poten ...

[2] = In vivo retention of Cy5.5-labeled hydrogel/formula (fluorescence imaging); conditions: 50 µL subcutaneous inguinal, 8-weeks old female NOD mice, imaged every 6 h at 640 nm excitation
Protocol: 8‐weeks old female NOD mice were subcutaneously injected with a volume of 50 µL Cy5.5‐labeled peptide hydrogels/formulas in inguinal region. In vivo peptide retention was observed every 6 h at 640 nm excitation wavelength via Cri Maestro In‐vivo imaging System (Xenogen, IVIS Lumina II).

[3] = biological target: human insulin receptor protein (Homo sapiens, UniProt P06213); test: Microscale thermophoresis (MST) binding to insulin receptor; conditions: Monolith NT.115, Recombinant Human Insulin R/CD220 (aa 28-944), 37 °C, read-out: dissociation constant (K D) to human insulin receptor protein
Protocol: 2‐Cl‐trityl chloride resin (1.1 mmol g^−1) was obtained from Nankai University resin Co., Ltd. Fmoc‐amino acids and o‐benzotriazol‐1‐yl‐N,N,N′,N′‐tetramethyluronium hexafluorophosphate (HBTU) were acquired from GL Biochem (Shanghai). Hydogels were prepared and respective endotoxin levels of formula were tested as previously reported.^[ ^23 , ^24 ^] Ins2_9‐23 peptide (SHLVEALYLVCGERGR; endotoxins <1 EU mg^−1) was supplied by Bankpeptide (Hefei, China). The BD Pharmingen FoxP3 staining kit was from (BD Biosciences, Beijing, China). Aluminum hydroxide was purchased from Sigma‐Aldrich (Shanghai, China). Antibodies used for flow cytometry analysis were purchased from eBioscience (CA, USA) and antibodies used for immunofluorescence staining were obtained from Abcam (Shanghai, China). Cytokine chip microarray was performed by Beijing Genomics Institute (Beijing, China). Recombinant Human Insulin R/CD220 (aa 28‐944) Protein was ordered from R&D Systems (Shanghai, China). Mouse Insulin EZRMI‐13 ELISA kit was from Millipore (Merck, UK). […]
All peptides in the study were synthesized by standard solid‐phase peptide synthesis (SPPS), and purified by high performance liquid chromatography (HPLC). […] CD spectrum were measured by a BioLogic (MOS‐450) system. […] The release behaviors of peptides was analyzed by liquid chromatograph (LC2020). […]

pancreatic islets = test: Immunofluorescence of pancreatic islets (morphology, immune cell infiltration), prevention study; format: in vivo, NOD mice
Protocol: Female NOD mice (3 weeks of age) were immunized subcutaneously under the front left leg with Nap‐G^dF^dF^dY, Nap‐GFFY, Nap‐G^dF^dA^dY, Nap‐^dF^dF, Ac‐G^dF^dF^dY (1 mg mL^−1, 50–70 µL), and Alum+Ins2_9‐23 (50 µg) and endotoxin‐free PBS once a week for 5 consecutive weeks (from 3‐weeks old to 7‐weeks old) and maintained in specific pathogen free facilities for up to 36 or 52 weeks (n = 3–10 per group). Random plasma glucose level and body weight of all mice were noted weekly from week 8 till the end of experiment with an OneTouch Ultra blood glucose meter (Lifescan Inc., Milpitas, CA, USA). Mice were classified as diabetic if random plasma glucose level exceeded 11.1 mmol L^−1 for 3 consecutive weeks. IPGTT was performed in all treatment groups at week 14, week 20, and week 36. Serum samples were obtained from all mice at the age of week 14, week 20, and week 36 for cytokine chip microarray, which was performed by the Beijing Genomics Institute. Serum insulin level was determined in 10 µL serum samples of each animal using a mouse insulin ELISA kit according to the manufacture's instruction.
Immunofluorescence staining was performed following procedures that were previously detailed.^[ ^18b,c ^] Pancreas were extracted and paraffin‐embedded before being sectioned (5 µm width) onto microscopic slides. For immunofluorescence staining, antigen retrieval was performed followed by exposure to primary antibodies at 4 ℃ overnight. The pancreas sections were then washed with PBS and staining with secondary antibody for 1–2 h at room temperature and examined under a fluorescence microscope (Olympus BX3‐25ND25, Japan).

[4] = Peptide release from hydrogel/solution; format: physicochemical; conditions: within 12 h, 37 °C, LC (LC2020)
Protocol: (§1) All peptides in the study were synthesized by standard solid‐phase peptide synthesis (SPPS), and purified by high performance liquid chromatography (HPLC). Hydrogels/formulas were prepared by heating–cooling method. Negative staining technique was used to observe the nanostructures of materials by using TEM (HITACHI HT7700 Exalens). CD spectrum were measured by a BioLogic (MOS‐450) system. Rheology test was carried out on an AR 2000ex system (TA instrument). The release behaviors of peptides was analyzed by liquid chromatograph (LC2020). Microscale thermophoresis and analysis of binding force was performed by using the Monolith NT.115 system (NanoTemper Technologies, Germany). All samples were tested at the temperature of 37 °C.

T1D onset in NOD mice = test: T1D prevention study, incidence of T1D onset; format: in vivo, female NOD mice; conditions: 1 mg mL^-1, 50-70 µL s.c. once a week for 5 weeks from 3 weeks of age
Protocol: Female NOD mice were inoculated with different hydrogel formulations 3 weeks of age. PBS and aluminum hydroxide+Ins2_9‐23 (Alum+Ins2_9‐23) were used as negative and positive controls, respectively. Random blood glucose (RBG) levels were measured weekly and mice with RBG levels above 11.1 mmol L^−1 for more than 3 consecutive weeks were considered “diabetic” in the present study.

[5] = Gelation test and TEM of hydrogels/formulas; format: physicochemical; conditions: after heating-cooling
Source text: We first tested the gelation properties of Nap‐G^dF^dF^dY and controlled peptides (Nap‐GFFY, Nap‐^dF^dF, Nap‐G^dF^dA^dY, and Ac‐G^dF^dF^dY). […] The nanostructures of these hydrogels and solutions were subsequently observed by transmission electron microscopy (TEM). […] The diameter of its nanofiber was about 12 nm. […] Insulin mimicking requires a specific conformation of the self‐assembled peptide Nap‐G^dF^dF^dY for in vivo performance, indicating a secondary structure examination is required. We obtained the circular dichroism (CD) spectrum of peptide within the hydrogel at 37 °C.
as §1

[6] = system: bone marrow derived dendritic cells (BMDCs); design: method as in PMID 31244959; conditions: ref 16b; cited from earlier work

| Compound | in vivo stability vs L-isoform Nap-GFFY [1] | in vivo retention time (fluorescence signal) [2] | Kd [3] [µM] | islet immune cell infiltration (pancreatic islets; immunofluorescence, prevention study) | immune cell infiltration per islet over Nap-G^dF^dF^dY (pancreatic islets; over Nap-G^dF^dF^dY, p < 0.01) [% over Nap-GdFdFdY] | average % of immune cell infiltration per islet (pancreatic islets; per islet, mean ± s.e.m., n = 5-20) [% per islet] | peptide released from gel [4] | T1D onset (T1D onset in NOD mice) [%] | gelation property [5] | CD40/CD80 expression on BMDCs [6] | TNF-α in cell culture supernatant of BMDCs [6] |
| --- | --- | --- | --- | --- | --- | --- | --- | --- | --- | --- | --- |
| O=C(Cc1ccc2ccccc2c1)NCC(=O)N[C@H](Cc1ccccc1)C(=O)N[C@H](Cc1ccccc1)C(=O)N[C@H](Cc1ccc(O)cc1)C(=O)O [Nap‐G^dF^dF^dY] ({Acetyl(2-naphthyl)}-G[dF][dF][dY]-OH) | preferentially more stable in vivo | about 36 h | 53.9 | – | – | – | – | – | – | – | – |
| O=C(Cc1ccc2ccccc2c1)N[C@H](Cc1ccccc1)C(=O)N[C@H](Cc1ccccc1)C(=O)O [Nap‐^dF^dF] | – | about 30 h | – | – | – | – | – | – | – | – | – |
| Nap‐GFFY | – | about 30 h | – | substantial immune cell infiltration | 248 ± 25 | 38.5 ± 3.8 | about 40% | 60 | could swiftly form transparent hydrogels | significant increase expression of CD40/CD80 | elevated |
